How the values were obtained:
[1] = test system: Staph aureus, MRSA, Klebsiella pneumoniae, E. coli, Proteus vulgaris, Pseudomonas aeruginosa, Enterobacter cloacae, Acinetobacter lwoffi, Acinetobacter …; assay: In-vitro comparison of Lots with different anti-oxidant amounts and control agents (FIGS. 16-27); type: cell-based; conditions: identical size drops; FIG. 16 Staph aureus, FIG. 17 MRSA, FIGS. 18-24 gram-negative cultures, FIG. 25 Enterococcus faecalis
[2] = test system: MRSA infection and Grade I diabetic ulcer of the left hallux with cellulitus; assay: Study III: human field study, diabetic foot lesion of great toe; type: in vivo; conditions: IV; 8 days following admission
Experimental: In this embodiment, the additional ingredient to hasten a third therapeutic tissue healing effect was added. This embodiment used vitamin D in a small but medically efficacious amount.

[3] = test system: HL-60 cells; conditions: cited from earlier work
[4] = test system: mouse embryonic stem cells and embryoid bodies; conditions: cited from earlier work

Molecule | zones of inhibition of control agents compared with the formulations of the invention [1] | patient response to treatment for MRSA [2] | amount at which desired cellular responses occurred [3] | subsequent retinoid-induced TGM2 expression after priming by pretreatment [3] | effect on mRNA and protein expression in epigenetic profiles [4]
CC[C@H]1OC(=O)[C@H](C)[C@@H](O[C@H]2C[C@@](C)(OC)[C@@H](O)[C@H](C)O2)[C@H](C)[C@@H](O[C@@H]2O[C@H](C)C[C@H](N(C)C)[C@H]2O)[C@](C)(O)C[C@@H](C)C(=O)[C@H](C)[C@@H](O)[C@]1(C)O [Erythromycin] | considerably reduced zones of inhibition | – | – | – | –
CO[C@@]1(NC(=O)Cc2cccs2)C(=O)N2C(C(=O)O)=C(COC(N)=O)CS[C@@H]21 [Cefoxicillin] | considerably reduced zones of inhibition | – | – | – | –
CN[C@H](CC(C)C)C(=O)N[C@H]1C(=O)N[C@@H](CC(N)=O)C(=O)N[C@H]2C(=O)N[C@H]3C(=O)N[C@H](C(=O)N[C@H](C(=O)O)c4cc(O)cc(O)c4-c4cc3ccc4O)[C@H](O)c3ccc(c(Cl)c3)Oc3cc2cc(c3O[C@@H]2O[C@H](CO)[C@@H](O)[C@H](O)[C@H]2O[C@H]2C[C@](C)(N)[C@H](O)[C@H](C)O2)Oc2ccc(cc2Cl)[C@H]1O [Vancomycin] | considerably reduced zones of inhibition | did not respond | – | – | –
vitamin D | – | – | about 100 nM | increases | –
C[S+](C)[O-] [DMSO, dimethyl sulfoxide] | – | – | less than 2% | increases | upregulation of mRNA and protein expression

— US20120082632A1, “Topical drug delivery system with dual carriers” (priority 2010, published 2012)
